Source: patent US20230218639A1, “USE OF OXYGENATED CHOLESTEROL SULFATES FOR TREATING NEUROLOGICAL CONDITIONS, NEURODEGENERATIVE DISEASES, AND ADDICTION” (Durect Corporation, priority 2020, published 2023)
Where “and” joins values, the source holds several entries; their conditions need not be identical. Equal entries are not always repeated.

Columns and labels:
[1] = molecular target: DNMT3b (Homo sapiens, UniProt Q9UBC3); assay: DNMT3b activity assay (Lambda DNA substrate, ^3H-SAM); type: biochemical; settings: read-out: IC50, DNMT3b activity
Procedure: For the DNMT1 activity assay, the substrate solution, 0.001 mg/ml Poly(dI-dC):Poly(dI-dC) in 50 mM Tris-HCl, pH 7.5, 50 mM NaCl, 5 mM EDTA, 5 mM DTT, 1 mM PMSF, 5% glycerol, 0.01% Brij35, 1% DMSO was used. For the DNMT3a/3b activity assay, 0.0075 mg/ml Lambda DNA in 50 mM Tris-HCl, pH 7.5, 50 mM NaCl, 5 mM EDTA, 5 mM DTT, 1 mM PMSF, 5% glycerol, 1% DMSO, was used. The indicated DNMT1, DNMT3a, or DNMT3b was added to the appropriate substrate solution and gently mixed. […] The mixtures were first incubated for 15 min, then ^3H-SAM was added to the reaction mixture to initiate the reaction, and the mixture was incubated for 60 min at 30° C. Following incubation, the reaction mixture was finally transferred to filter-paper for detection of radioactivity counts.

[2] = system: ^5mCpG in promoter regions, Huh-7 cells; assay: Whole genome bisulfite sequencing (WGBS); type: cell-based, human
Procedure: Each sample, 2 μg, was sent to EpigenDx, Inc. (Hopkinton, Mass.) for analysis of global methylation bisulfite sequencing. The same samples, 6 μg, were sent to Novogene Co., Ltd (Tianjin, China) for analysis of whole genome bisulfite sequencing (WGBS). Total RNA was isolated using the Promega SV total RNA isolation system (Madison, Wis.) with DNase treatment. Each sample, 2 μg, was used for the first-strand cDNA synthesis as recommended by the manufacturer (Invitrogen, Carlsbad, Calif.). Real-time RT-PCR was performed using SYBR Green as the indicator on ABI 7500 Fast Real-Time PCR System (Applied Biosystems, Foster City, Calif.). Amplifications of β-actin or GAPDH were used as internal controls. Relative messenger RNA (mRNA) expression was quantified with the comparative cycle threshold (Ct) method using the primer set shown in Table 1.1 and was expressed as 2^−ΔΔCt.
Each sample, 5.2 μg of genomic DNA spiked with 26 ng lambda DNA, was fragmented by sonication to 200-300 bp with Covaris S220, followed by end repair and adenylation. Cytosine-methylated barcodes were ligated to sonicated DNA per the manufacturer's instructions. These DNA fragments were treated twice with bisulfite using EZ DNA Methylation-Gold™ Kit (Zymo Research) before the resulting single-strand DNA fragments were PCR amplified using KAPA HiFi Hot Start Uracil and Ready Mix (2×). Library concentration was quantified by Qubit® 2.0 Flurometer (Life Technologies, CA, USA) and quantitative PCR, and the insert size was assayed on an Agilent Bioanalyzer 2100 system.
The library preparations were sequenced on an Illumina Hiseq 2500/4000 or Novaseq platform and 125 bp/150 bp paired-end reads were generated. Image analysis and base calling were performed with Illumina CASAVA pipeline. Trimmomatic (Trimmomatic-0.36) software was used for quality control. Bismark software (version 0.16.3; Krueger F, 2011) was used to perform alignments of bisulfite-treated reads to a reference genome (−×700—dovetail). DSS software (23) was used to identify differentially methylated regions (DMRs). KOBAS software was used to test the statistical enrichment of DMR related genes in the Kyoto Encyclopedia of Genes and Genomes (KEGG) pathways.
Each sample (6 μg) was used for analysis of the whole genome bisulfite sequencing (WGBS).

C[C@H](CCCC(C)(C)O)[C@H]1CC[C@H]2[C@@H]3CC=C4C[C@@H](OS(=O)(=O)O)CC[C@]4(C)[C@H]3CC[C@]12C [25HC3S, 5-Cholesten-3β, 25-diol 3-sulfate]
IC50 [1]: 9.05 µM | genes with demethylated ^5mCpG in promoter regions, Calcium pathway ([2]; of 180 total genes): 19 genes | genes with demethylated ^5mCpG in promoter regions, cAMP pathway ([2]; of 200 total genes): 28 genes | genes with demethylated ^5mCpG in promoter regions, MAPK signaling pathway ([2]; of 257 total genes): 23 genes | number of KEGG pathways enriched in hypomethylated genes ([2]; p<0.05, Huh-7, HG 72 hours, 25 μM 25HC3S 4 hours): 79 KEGG pathways and 75 KEGG pathways
